Source: patent US20220313670A1, “Methods Of Treating Fabry Disease In Patients Having Renal Impairment” (Amicus Therapeutics, Inc., priority 2019, published 2022)
Values joined by “and” are separate entries in the source; they are usually repeats but may differ in a detail not shown here. Equal values may be shown once. Read-outs that look alike come from different tables or passages of the source.

Experiments:
[1] = Multiple dose simulations (2-compartment model, WinNonlin) on the renal impairment subjects of Example 1; parameters: species or system human; conditions: ratio to AUCPPK
Source text: This example provides computer simulations of dosing the renal impairment subjects of Example 1. The key assumption was exposure characterized in non-Fabry subjects with renal impairment is the same as in Fabry patients with renal impairment. The software program was WinNonlin version 5.2 or higher. […] Steady state was assumed by 7th dose. […] QOD (every other day or 48 hrs), Q3D (every 3rd day or 72 hrs), Q4D (every 4th day or 96 hrs), and Q7D (every 7th day/once a week or 168 hrs). A 2-compartment model was used to estimate volume of distribution (Vd) and elimination rate constants from single dose data. These estimates were inputted into each molecular dose simulation regimen.

[2] = Phase 1 single-dose pharmacokinetics and safety study of migalastat HCl in non-Fabry subjects with renal impairment (Example 1, AT1001-015); assay type: in vivo, human; conditions: for AUC0-∞: individual subjects, in ng·h/mL; for concentration at 96 h: read-out: C96 h, Mean; for Comparison to Example 1 Moderate Impairment (migalastat concentration): non-Fabry subjects with moderate renal impairment, in ng/mL (unit assumed); for Comparison to Example 1 Severe Impairment (migalastat concentration): non-Fabry subjects with severe renal impairment, (coefficient of variation)
Experimental: The eGFR estimated by the Cockcroft-Gault equation per the FDA Guidance for renal impairment studies.
Volunteers were enrolled into two cohorts stratified for renal function calculated using the Cockcroft-Gault equation for creatinine clearance (CLcr). Subjects were assigned to groups based on an estimated CLcr at screening as calculated using the Cockcroft-Gault equation.
Subjects were grouped according to degree of renal dysfunction: mild (CLcr ≥60 and <90 mL/min), moderate (CLcr ≥30 and <60 mL/min), or severe (CLcr ≥15 and <30 mL/min)

[3] = AT1001-015, Mild (CLcr ≥60-<90 mL/min), N 8
[4] = AT1001-015, Moderate (CLcr ≥30-<60 mL/min), N 8
[5] = AT1001-015, Normal (CLcr ≥90 mL/min), N 8
[6] = AT1001-015, Severe (CLcr ≥15-<30 mL/min), N 8
[7] = human, plasma, po, 150 mg, single oral 150 mg migalastat HCl, non-Fabry subjects, renal function group Mild (N = 8)
[8] = human, plasma, po, 150 mg, single oral 150 mg migalastat HCl, non-Fabry subjects, renal function group Moderate (N = 8)
[9] = human, plasma, po, 150 mg, single oral 150 mg migalastat HCl, non-Fabry subjects, renal function group Normal (N = 8)
[10] = human, plasma, po, 150 mg, single oral 150 mg migalastat HCl, non-Fabry subjects, renal function group Severe (N = 8)

OC[C@H]1NC[C@H](O)[C@@H](O)[C@H]1O [migalastat, (2R,3S,4R,55)-2-(hydroxymethyl) piperdine-3,4,5-triol]
RacPPK ([1]; Geometric Mean of the 11 subjects): 4.96 | RacPPK ([1]; individual subjects, Moderate (≥30-≤35) group): 3.75 and 4.36 and 2.06 | RacPPK ([1]; individual subjects, Severe (<30) group): 8.81 and 5.59 and 5.02 and 6.74 and 6.23 and 6.91 and 3.62 and 5.17 | AUC0-t, Geometric mean [2, 3]: 14374 ng·h/mL | AUC0-∞, Geometric mean (CV %) [2, 3]: 14520 (30.8) hr*ng/mL | C96 h, Mean [2, 3]: BLQ | Frel [2, 3]: 1.2 | t1/2, Mean [2, 3]: 7.7 h | tmax, Median (min-max) [2, 3]: 2.5 (1.5-4.0) hr | AUC0-t, Geometric mean [2, 4]: 22122 ng·h/mL | AUC0-∞, Geometric mean (CV %) [2, 4]: 22455 (41.2) hr*ng/mL | Frel [2, 4]: 1.8 | AUC0-t, Geometric mean [2, 5]: 12299 ng·h/mL | AUC0-∞, Geometric mean (CV %) [2, 5]: 12389 (24.8) hr*ng/mL | C96 h, Mean [2, 5]: BLQ | t1/2, Mean [2, 5]: 6.4 h | tmax, Median (min-max) [2, 5]: 2.5 (1.5-3.0) hr | AUC0-t, Geometric mean [2, 6]: 53098 ng·h/mL | AUC0-∞, Geometric mean (CV %) [2, 6]: 56174 (24.2) hr*ng/mL | Cmax, Geometric mean (CV %) [2, 6]: 2078 (43.3) ng/mL | Frel [2, 6]: 4.5 | AUC0-∞ ([2]; NCA SD Data, single 150 mg migalastat HCl, Moderate (≥30-≤35) group): 36051 and 40653 and 19723 | AUC0-∞ ([2]; NCA SD Data, single 150 mg migalastat HCl, Severe (<30) group): 83312 and 54470 and 48890 and 62034 and 59538 and 65916 and 36227 and 49905 | concentration at 48 h ([2]; human, plasma, oral, 150 mg, 150 mg dose of migalastat hydrochloride, individuals with normal kidney function, level of quantification, read-out: C48h): < 5 ng/mL | concentration at 48 h ([2]; human, plasma, oral, 150 mg, AT1001-015, Mild (CLcr ≥60-<90 mL/min), N 8, read-out: C48 h, Mean): 9.34 ng/mL | concentration at 96 h ([2]; human, plasma, oral, 150 mg, AT1001-015, Moderate (CLcr ≥30-<60 mL/min), N 8): 16.7 ng/mL | concentration at 48 h ([2]; human, plasma, oral, 150 mg, AT1001-015, Normal (CLcr ≥90 mL/min), N 8, read-out: C48 h, Mean): 5.7 ng/mL | AUC(0-inf) ([2]; human, plasma, oral, 150 mg, NCA SD Data, single 150 mg migalastat HCl, Geometric Mean of the 11 subjects): 47600 ng·h/mL | concentration at 96 h ([2]; human, plasma, oral, 150 mg, AT1001-015, Severe (CLcr ≥15-<30 mL/min), N 8): 105 ng/mL | tmax ([2]; human, plasma, oral, 150 mg, AT1001-015, Severe (CLcr ≥15-<30 mL/min), N 8, read-out: tmax, Median (min-max)): 4 h | AUC(0-inf) [2, 7]: 14500 ng·h/mL | AUC(0-t) [2, 7]: 14400 ng·h/mL | Cmax [2, 7]: 2190 ng/mL | AUC(0-inf) [2, 8]: 22500 ng·h/mL | AUC(0-t) [2, 8]: 22100 ng·h/mL | Cmax [2, 8]: 1870 ng/mL | AUC(0-inf) [2, 9]: 12400 ng·h/mL | AUC(0-t) [2, 9]: 12300 ng·h/mL | Cmax [2, 9]: 2100 ng/mL | AUC(0-inf) [2, 10]: 56200 ng·h/mL | AUC(0-t) [2, 10]: 53100 ng·h/mL | Plasma migalastat C48h levels compared with healthy control subjects ([2]; moderate (predominantly CrCL <50 ml/min) and severe renal impairment): elevated | Comparison to Example 1 Moderate Impairment (migalastat concentration) ([2]; 3 Hrs Post): 1868 | Comparison to Example 1 Moderate Impairment (migalastat concentration) ([2]; 24 Hrs Post): 239 | Comparison to Example 1 Moderate Impairment (migalastat concentration) ([2]; 48 Hrs Post): 64.5 | Comparison to Example 1 Moderate Impairment (migalastat concentration) ([2]; Pre-dose (0 h), same value as 48 h): 64.5 | Comparison to Example 1 Severe Impairment (migalastat concentration) ([2]; 2 h): 1549 (59.3%) | Comparison to Example 1 Severe Impairment (migalastat concentration) ([2]; 24 h): 770 (26.5%) | Comparison to Example 1 Severe Impairment (migalastat concentration) ([2]; 48 h): 334 (38.2%) | Cmax compared to healthy control subjects ([2]; single oral 150 mg migalastat HCl, across any of the renal impairment groups): not increased
